Measurements reported in patent US4347319A, “Microbiological epoxidation process” (priority 1980, dated 1982).
“Also recorded” adds a separate entry of the source.

Experiments:
Assay type in all cases: biochemical
[1] = tested on: P(40) particulate fraction of Methylosinus sp. (CRL-15, NRRL B-11,202); assay: Effect of inhibitors on propylene epoxidation and methane hydroxylation; conditions: inhibitor 10^-3 M; P(40) fraction
Procedure: (§1) The oxidation of methane and propylene by particulate [(P)40 and (P)80] fractions and soluble [S(80)] fraction was measured at 30° C. by estimating the production of methanol and propylene oxide, respectively. The reaction mixtures contained in […]: 150 mM potassium phosphate buffer, pH 7.0 containing 5 mM MgCl2 b, 0.6 ml; 10μ moles NADH, and cellular fraction.
(§2) Reaction mixtures were contained in 10 ml vials at 4° C. Vials were sealed with rubber caps. The gaseous phase in the vials was removed using vacuum and then was replaced with a gas mixture of methane or propylene and oxygen at a 1:1, v/v ratio. Oxidation of other gaseous n-alkanes and n-alkanes was examined as described above. For liquid substrates, 10 μl of substrate was used directly. Vials were then incubated at 30° C. on a rotary shaker at 200 RPM.
It has been reported that the oxidation of methane by cell suspensions of methane-utilizing bacteria was inhibited by various metal-binding or metal-chelating agents (Patel et al., J. Bacteriol. 126: 1017-1019 (1976)). […] (CRL-15, NRRL B-11,202) was examined.

[2] = tested on: purified secondary alcohol dehydrogenase from Pichia sp. NRRL Y-11,328; assay: Inhibitors of purified yeast SADH; conditions: primary alcohols tested at 10^-3 M
Procedure: Large scale cultures of Pichia sp. NRRL Y-11,328 were grown with aeration at 30° C. in a 14-liter New Brunswick f fermentor in a mineral salt medium containing methanol (0.4%, v/v) as the sole carbon source. The cells (200 g., wet weight) were suspended in […] sodium phosphate buffer, pH 7.0, containing 1 mM dithiothreitol (buffer A), and crude extracts were prepared as described previously. To the crude extracts, 18 ml. of protamine sulfate solution [2% solution in 0.1 M tris (hydroxymethyl) aminomethane (tris) base] was added dropwise with continuous stirring. After standing for 30 min., the extracts were centrifuged at 20,000×g. for 60 min. The supernatant solution was fractionated with solid ammonium sulfate. Extracts were brought to 50% of saturation with respect to ammonium sulfate by addition of 313 g. of the salt per liter of extract. Precipitated proteins was removed by centrifugation, and 137 g. of ammonium sulfate was added per liter of the supernatant liquid to bring it to 70% of saturation. Material precipitating between 50 and 70% of saturation was collected by centrifugation and dissolved in buffer A. This preparation was dialyzed overnight against buffer A, and the dialyzed material was applied to a DEAE-cellulose column (5×40 cm) that had been equilibrated with buffer A. The sample was washed with 200 ml. of buffer A and eluted with 2 liters of buffer A that contained NaCl in a linear gradient running from a concentration of 0 to 0.5 M. Fractions of 15 ml. were collected. Fractions containing secondary alcohol dehydrogenase activity were pooled and were termed DEAE-cellulose eluate. The DEAE-cellulose eluate was concentrated by ammonium sulfate fractionation.
Secondary alcohol dehydrogenase activity was measured spectrophotometrically at 340 nm with a NAD^+ as an electron acceptor. The reaction mixture, in a total 3.0 ml., contained 50 mM phosphate buffer, pH 8,0, 5 μ moles NAD^+, crude extracts, and substrate. The reactions were started by addition of 100 µl of 0.1 M substrate and the rate of NAD^+ reduction was measured. Protein concentration was determined by the method of Lowry et al.
Various primary alcohols not oxidized by secondary alcohol dehydrogenase were tested as potential inhibitors of enzyme activity.

[3] = tested on: purified secondary alcohol dehydrogenase (SADH) from Pseudomonas sp. ATCC 21439; assay: Effect of metal-chelating agents and thio reagents on purified SADH; conditions: final concentration of 1 mM; measured spectrofluorometrically
Procedure: Secondary alcohol dehydrogenase (SADH) from an obligate methanol utilizer, Pseudomonas sp. ATCC 21439 was purified as follows. […] 0.05 M sodium phosphate buffer, pH 7.0 with 0.5 mM dithiothretol (buffer A) and were disrupted sonically (5×1 min.). The crude extract was separated by centrifugation. The crude extract was heat-treated at 50° C. in a water bath for 10 minutes. The resulting precipitate was removed by centrifugation. To the supernatant solution, 25 ml of protamine sulfate solution (2% solution in 0.1 M Tris base) was added dropwise with continuous stirring. After standing for 30 minutes, the extract was centrifuged. The supernatant solution was fractionated with solid ammonium sulfate. […] This DEAE-cellulose eluate was concentrated by ammonium sulfate fractionation. Material precipitating between 30 and 50% ammonium sulfate saturation was collected by centrifugation and dialyzed overnight against A. This fraction was further washed and filtered through an Amicon unit with XM 50 membrane. The concentrated fraction (6 ml) inside the Amicon unit was applied to an Affi-Gel Blue column (0.8 cm×18 cm) which had been equilibrated with buffer A for affinity chromatography. The column was washed overnight with buffer A (0.18 ml./min.) and then was eluted with buffer A containing 5 mM NAD. Each 1 ml. fraction was collected.
The purified secondary alcohol dehydrogenase enzyme (SADH) may be used directly for converting C3 -C6 secondary alcohols to the corresponding methyl ketones by the procedures described above; however, a source of NAD^+ must be added to the reaction medium. One can determine the NAD-linked secondary alcohol dehydrogenase activity with a fluorescence spectrophotometer (Perkin Elmer, Model MPF 44A) by following the formation of reduced NAD (Ex 340 nm, Em 460 nm). The assay system (3 ml.) will typically contain: sodium phosphate buffer pH 7.0, 150 μmol; NAD 1.0 μmol; a given amount of enzyme preparation; and 20 μmol secondary alcohol. The reaction is started by the addition of secondary alcohol. One unit of SADH enzyme activity represents the reduction of one nmole NAD per minute.
The effect of metal-chelating agents and chioreagents on the activity of the purified SADH enzyme were studied. […] The possibility of ethanol or n-propanol as an inhibitor was studied.

[4] = tested on: cell-free particulate fractions derived from the methylotrophic microorganisms; assay: Inhibition of conversion of C3 -C6 n-alkanes to sec. alcohols; conditions: oxygen and NADH present
Text: The conditions for preparing the cell suspensions or the cell-free particulate fractions from methane-grown methylotroph microorganisms is the same as described above.

[5] = tested on: P(40) particulate fraction of Methylosinus sp. (CRL-15, NRRL B-11,202); assay: Effect of metals on propylene epoxidation and methane hydroxylation; conditions: metal 10^-3 M, P(40) fraction
Procedure: as §1
as §2, with “directly.” for “directly. Vials were then incubated at 30° C. on a rotary shaker at 200 RPM.”
Since the methane mono-oxygenase from methane-utlizing bacteria is a copper or iron-containing protein (Tonge et al., J. Biochem., 161: 333-344 (1977)), we have examined the effect of copper and iron salts on the oxidation of methane and propylene by the P(40) particulate fraction of Methylosinus sp. (CRL-15, NRRL B-11,202). The rate of hydroxylation of methane to methanol and epoxidation of propylene to propylene oxide was increased twofold in the presence of added copper salts (Table XII).

[6] = tested on: cell-free soluble extracts of C1 -utilizing microbes (secondary alcohol dehydrogenase); assay: Cofactor requirement of cell-free SADH systems
Procedure: Catalytic activity was also assayed by fluorescence spectrophotometry.

[7] = tested on: purified secondary alcohol dehydrogenase from Pichia sp. NRRL Y-11,328; assay: Substrate specificity, electron acceptor and stoichiometry of purified yeast SADH

c1cnc2c(c1)ccc1cccnc12 [1,10-Phenanthroline]
% Inhibition, Methane-Hydroxylating Activity [1]: 90%
% Inhibition, Propylene-Epoxidizing Activity [1]: 93%
inhibition of secondary alcohol dehydrogenase activity [2]: strongly inhibited
% inhibition of SADH activity [3]: 95%
inhibition of conversion of n-alkanes to sec. alcohols [4]: inhibited

Oc1cccc2cccnc12 [8-Hydroxyquinoline]
% Inhibition, Methane-Hydroxylating Activity [1]: 80%
% Inhibition, Propylene-Epoxidizing Activity [1]: 75%
inhibition of conversion of n-alkanes to sec. alcohols [4]: inhibited

O=S(=O)([O-])[O-].[Cu+2] [Cupric Sulfate]
inhibition of secondary alcohol dehydrogenase activity [2]: inhibited
Methane-Oxidizing Activity ([5]; control 4.0): 7.1 μmoles/hr/mg protein
Propylene-Oxidizing Activity ([5]; control […]): 9.0 μmoles/hr/mg protein

Cc1cc2nc3c(=O)[nH]c(=O)nc-3n(C[C@H](O)[C@H](O)[C@H](O)COP(=O)(O)OP(=O)(O)OC[C@H]3O[C@@H](n4cnc5c(N)ncnc54)[C@H](O)[C@@H]3O)c2cc1C [FAD, flavin adenine dinucleotide]
effectiveness as cofactor for oxidation of secondary alcohols [6]: not effective
electron acceptor / carrier [7]: could not act as electron carrier

c1c[nH]cn1 [Imidazole]
inhibition of secondary alcohol dehydrogenase activity [2]: strongly inhibited

NC(=O)C1=CN([C@@H]2O[C@H](COP(=O)(O)OP(=O)(O)OC[C@H]3O[C@@H](n4cnc5c(N)ncnc54)[C@H](OP(=O)(O)O)[C@@H]3O)[C@@H](O)[C@H]2O)C=CC1 [NAD(P)H]
effectiveness as cofactor for oxidation of secondary alcohols [6]: not effective

NC(=O)c1ccc[n+]([C@@H]2O[C@H](COP(=O)([O-])OP(=O)(O)OC[C@H]3O[C@@H](n4cnc5c(N)ncnc54)[C@H](O)[C@@H]3O)[C@@H](O)[C@H]2O)c1 [NAD, Nicotinamide adenine dinucleotide]
effectiveness as cofactor for oxidation of secondary alcohols [6]: requirement; also recorded: required
electron acceptor / carrier [7]: required

NC(=O)c1ccc[n+]([C@@H]2O[C@H](COP(=O)([O-])OP(=O)(O)OC[C@H]3O[C@@H](n4cnc5c(N)ncnc54)[C@H](OP(=O)(O)O)[C@@H]3O)[C@@H](O)[C@H]2O)c1 [NADP]
effectiveness as cofactor for oxidation of secondary alcohols [6]: not effective
electron acceptor / carrier [7]: could not act as electron carrier

NNC(N)=S [Thiosemicarbazide]
% Inhibition, Methane-Hydroxylating Activity [1]: 100%
% Inhibition, Propylene-Epoxidizing Activity [1]: 97%
inhibition of conversion of n-alkanes to sec. alcohols [4]: inhibited

NC(N)=S [Thiourea]
% Inhibition, Methane-Hydroxylating Activity [1]: 98%
% Inhibition, Propylene-Epoxidizing Activity [1]: 98%
% inhibition of SADH activity [3]: 0%
inhibition of conversion of n-alkanes to sec. alcohols [4]: inhibited

O=C1C(Cl)=CC(=Nc2ccc(O)cc2)C=C1Cl [dichlorophenol indophenol]
effectiveness as cofactor for oxidation of secondary alcohols [6]: not effective
electron acceptor / carrier [7]: could not act as electron carrier

N[C@@H](CCC(=O)N[C@@H](CS)C(=O)NCC(=O)O)C(=O)O [glutathione]
inhibition of secondary alcohol dehydrogenase activity [2]: strongly inhibited
effectiveness as cofactor for oxidation of secondary alcohols [6]: not effective

N#C[S][Hg][S]C#N [mercuric thiocyanate]
inhibition of secondary alcohol dehydrogenase activity [2]: inhibited

O=C(O)c1cc[c]([Hg+])cc1.[OH-] [p-hydroxymercuribenzoate]
inhibition of secondary alcohol dehydrogenase activity [2]: strongly inhibited
% inhibition of SADH activity [3]: 100%

C[n+]1c2ccccc2nc2ccccc21 [phenazine methosulfate]
effectiveness as cofactor for oxidation of secondary alcohols [6]: not effective
electron acceptor / carrier [7]: could not act as electron carrier

O=[N+]([O-])[O-].[Ag+] [silver nitrate]
inhibition of secondary alcohol dehydrogenase activity [2]: inhibited

c1ccc(-c2ccccn2)nc1 [α,α-Bipyridyl]
% Inhibition, Methane-Hydroxylating Activity [1]: 99%
% Inhibition, Propylene-Epoxidizing Activity [1]: 98%
% inhibition of SADH activity [3]: 70%
inhibition of conversion of n-alkanes to sec. alcohols [4]: inhibited
